Assay results: ChEMBL document CHEMBL4431349, “Synthesis and in vitro evaluation of water-soluble 1,4-diphenethylpiperazine analogs as novel inhibitors of the vesicular monoamine transporter-2” (Bioorg Med Chem Lett, 2016)

Key:
[1] = target: Voltage-gated inwardly rectifying potassium channel KCNH2 (Homo sapiens, UniProt Q12809); assay: Inhibition of [3H]dofetilide binding to human ERG expressed in HEK293 cell membranes after 60 mins by liquid scintillation spectrometric analysis
[2] = Thermodynamic solubility of the compound in water at pH 7.4 after 24 hrs by HPLC based shake flask method; format: physicochemical; details: read-out: Therm_solubility

Voltage-gated inwardly rectifying potassium channel KCNH2, sequence (Q12809 whole entry): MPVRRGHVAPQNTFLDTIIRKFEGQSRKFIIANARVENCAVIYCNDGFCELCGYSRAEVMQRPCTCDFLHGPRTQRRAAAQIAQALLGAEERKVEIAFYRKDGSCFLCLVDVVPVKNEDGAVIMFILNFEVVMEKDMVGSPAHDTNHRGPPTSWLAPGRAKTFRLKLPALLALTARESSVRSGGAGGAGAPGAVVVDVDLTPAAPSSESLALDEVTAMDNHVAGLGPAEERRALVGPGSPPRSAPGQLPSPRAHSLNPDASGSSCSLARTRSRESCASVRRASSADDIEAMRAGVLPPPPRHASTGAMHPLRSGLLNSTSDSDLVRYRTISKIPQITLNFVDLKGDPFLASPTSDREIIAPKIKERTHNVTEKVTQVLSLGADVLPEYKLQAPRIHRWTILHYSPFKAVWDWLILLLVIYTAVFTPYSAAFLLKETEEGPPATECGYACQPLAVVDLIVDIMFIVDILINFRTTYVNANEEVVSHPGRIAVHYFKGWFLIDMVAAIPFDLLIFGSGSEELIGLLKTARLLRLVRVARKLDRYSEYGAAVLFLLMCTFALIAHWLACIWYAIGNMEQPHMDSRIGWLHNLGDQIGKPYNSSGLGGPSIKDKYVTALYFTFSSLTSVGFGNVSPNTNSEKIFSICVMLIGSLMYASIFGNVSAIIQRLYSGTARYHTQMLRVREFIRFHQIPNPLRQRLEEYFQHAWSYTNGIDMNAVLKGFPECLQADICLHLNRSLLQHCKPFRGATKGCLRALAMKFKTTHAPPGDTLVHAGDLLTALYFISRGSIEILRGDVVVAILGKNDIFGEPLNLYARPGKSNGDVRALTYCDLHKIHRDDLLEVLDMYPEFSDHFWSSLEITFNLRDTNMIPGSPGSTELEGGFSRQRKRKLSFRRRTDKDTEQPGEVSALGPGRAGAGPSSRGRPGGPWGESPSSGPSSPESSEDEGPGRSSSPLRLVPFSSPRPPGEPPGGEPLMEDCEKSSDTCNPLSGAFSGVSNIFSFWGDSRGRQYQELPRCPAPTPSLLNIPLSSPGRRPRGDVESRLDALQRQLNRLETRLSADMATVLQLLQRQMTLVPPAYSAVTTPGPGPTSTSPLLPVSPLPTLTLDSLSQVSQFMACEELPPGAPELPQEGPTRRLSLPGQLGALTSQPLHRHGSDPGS

Structure (SMILES) | Ki [1] [nM] | solubility thermodynamic at 24 h [2] [mg/mL]
Clc1ccccc1CCN1CCN(CCc2ccccc2Cl)CC1 | 1080 | –
COc1ccccc1CCN1CCN(CCc2ccccc2OC)CC1 | 1020 | –
COc1ccccc1CCN1CCN(CCc2ccccc2)CC1.Cl.Cl | 2940 | 33.3
